Results as given in patent publication US20250221410A1, “SUBSTITUTED 2-C-AZINES AND SALTS THEREOF, AND USE THEREOF AS HERBICIDAL ACTIVE SUBSTANCES” (BAYER AKTIENGESELLSCHAFT, priority 2022, published 2025).

Tests used:
Type in all cases: in vivo
[1] = tested on: AMARE: Amaranthus retroflexus; assay: Post-emergence herbicidal efficacy at 80 g/ha, AMARE; conditions: visual rating about 3 weeks after treatment vs untreated controls
Procedure: Seeds of monocotyledonous and dicotyledonous weeds and crop plants were placed in sandy loam in plastic or organic planting pots, covered with soil and cultivated in a greenhouse under controlled growth conditions. 2 to 3 weeks after sowing, the test plants were treated at the one-leaf stage. The compounds of the invention, formulated in the form of wettable powders (WP) or as emulsion concentrates (EC), were then sprayed onto the green parts of the plants as aqueous suspension or emulsion with addition of 0.5% additive at a water application rate of 600 l/ha (converted). After the test plants had been kept in the greenhouse under optimum growth conditions for about 3 weeks, the activity of the preparations was rated visually in comparison to untreated controls. For example, 100% activity=the plants have died, 0% activity=like control plants. Tables B1 to B10 below show the effects of selected compounds of the general formula (I) according to Table 1 on various harmful plants and an application rate corresponding to 80 g/ha, which were obtained by the experimental procedure mentioned above.

[2] = tested on: DIGSA: Digitaria sanguinalis; assay: Pre-emergence herbicide efficacy at 1280 g/ha, DIGSA; conditions: visual scoring after about 3 weeks vs untreated controls
Source text: (§1) Seeds of mono- and dicotyledonous weed plants were placed in plastic pots in sandy loam soil (doubly sown with one species each of mono- or dicotyledonous weed plants per pot) and covered with soil. The compounds of the invention, formulated in the form of wettable powders (WP) or as emulsion concentrates (EC), were then applied to the surface of the covering soil as aqueous suspension or emulsion with addition of 0.5% additive at a water application rate of 600 litres per hectare (converted). After the treatment, the pots were placed in a greenhouse and kept under good growth conditions for the test plants. After about 3 weeks, the efficacy of the preparations was scored visually in comparison with untreated controls as percentages. For example, 100% activity=the plants have died, 0% activity=like control plants. Tables C1 to C12 below show the effects of selected compounds of the general formula (I) according to Table 1 on various harmful plants and at an application rate corresponding to 1280 g/ha, which were obtained by the trial procedure specified above.

[3] = tested on: ABUTH: Abutilon theophrasti; assay: Post-emergence herbicidal efficacy at 1280 g/ha, ABUTH; conditions: rated visually after about 3 weeks vs untreated controls, 100% = plants have died, 0% = like control plants
Procedure: (§2) Seeds of mono- and dicotyledonous weed plants were placed in plastic pots in sandy loam soil (doubly sown with in each case one species of mono- or dicotyledonous weed plants per pot), covered with soil and cultivated in a greenhouse under controlled growth conditions. 2 to 3 weeks after sowing, the test plants were treated at the one-leaf stage. The compounds of the invention, formulated in the form of wettable powders (WP) or as emulsion concentrates (EC), were applied to the green parts of the plants as aqueous suspension or emulsion with addition of 0.5% additive at a water application rate equivalent to 600 litres per hectare. After the test plants had been kept in the greenhouse under optimum growth conditions for about 3 weeks, the activity of the preparations was rated visually in comparison to untreated controls. For example, 100% activity=the plants have died, 0% activity=like control plants. Tables A1 to A12 below show the effects of selected compounds of the general formula (I) according to Table 1 on various harmful plants and at an application rate corresponding to 1280 g/ha, which were obtained by the trial procedure specified above.

POAAN: Poa annua [4] = assay: Pre-emergence herbicide efficacy at 1280 g/ha, POAAN; conditions: visual scoring after about 3 weeks vs untreated controls
Source text: as §1

POAAN: Poa annua [5] = assay: Post-emergence herbicidal efficacy at 1280 g/ha, POAAN; conditions: visual rating about 3 weeks after treatment vs untreated controls
Procedure: as §2

STEME: Stellaria media [6] = assay: Pre-emergence herbicide efficacy at 1280 g/ha, STEME; conditions: visual scoring vs untreated controls
Source text: as §1

[7] = tested on: AMARE: Amaranthus retroflexus; assay: Post-emergence herbicidal efficacy at 1280 g/ha, AMARE; conditions: rated visually after about 3 weeks vs untreated controls, 100% = plants have died, 0% = like control plants
Procedure: as §2

KCHSC: Kochia scoparia [8] = assay: Pre-emergence herbicide efficacy at 1280 g/ha, KCHSC; conditions: visual scoring after about 3 weeks vs untreated controls
Source text: as §1

SETVI: Setaria viridis [9] = assay: Post-emergence herbicidal efficacy at 1280 g/ha, SETVI; conditions: visual rating about 3 weeks after treatment vs untreated controls
Procedure: as §2

STEME: Stellaria media [10] = assay: Post-emergence herbicidal efficacy at 1280 g/ha, STEME; conditions: visual rating about 3 weeks after treatment vs untreated controls
Procedure: as §2

VERPE: Veronica persica [11] = assay: Pre-emergence herbicide efficacy at 1280 g/ha, VERPE; conditions: visual scoring vs untreated controls
Source text: as §1

VERPE: Veronica persica [12] = assay: Post-emergence herbicidal efficacy at 1280 g/ha, VERPE; conditions: visual rating about 3 weeks after treatment vs untreated controls
Procedure: as §2

KCHSC: Kochia scoparia [13] = assay: Post-emergence herbicidal efficacy at 1280 g/ha, KCHSC; conditions: visual rating about 3 weeks after treatment vs untreated controls
Procedure: as §2

[14] = tested on: AMARE: Amaranthus retroflexus; assay: Pre-emergence herbicide efficacy at 1280 g/ha, AMARE; conditions: visual scoring after about 3 weeks vs untreated controls
Source text: as §1

SETVI: Setaria viridis [15] = assay: Pre-emergence herbicide efficacy at 1280 g/ha, SETVI; conditions: visual scoring vs untreated controls
Source text: as §1

[16] = tested on: ECHCG: Echinochloa crus-galli; assay: Pre-emergence herbicide efficacy at 1280 g/ha, ECHCG; conditions: visual scoring after about 3 weeks vs untreated controls
Source text: as §1

[17] = tested on: ABUTH: Abutilon theophrasti; assay: Pre-emergence herbicide efficacy at 1280 g/ha, ABUTH; conditions: visual scoring after about 3 weeks vs untreated controls
Source text: as §1

| Structure (SMILES) | Post-emergence efficacy against AMARE [1] [%] | Pre-emergence efficacy against DIGSA [2] [%] | Post-emergence efficacy at 1280 g/ha against ABUTH in % [3] [%] | Pre-emergence efficacy against POAAN (POAAN: Poa annua [4]) [%] | Post-emergence efficacy against POAAN (POAAN: Poa annua [5]) [%] | Pre-emergence efficacy against STEME in % (STEME: Stellaria media [6]) [%] | Post-emergence efficacy at 1280 g/ha against AMARE in % [7] [%] | Pre-emergence efficacy against KCHSC (KCHSC: Kochia scoparia [8]) [%] | Post-emergence efficacy against SETVI (SETVI: Setaria viridis [9]) [%] | Post-emergence efficacy against STEME (STEME: Stellaria media [10]) [%] | Pre-emergence efficacy against VERPE in % (VERPE: Veronica persica [11]) [%] | Post-emergence efficacy against VERPE (VERPE: Veronica persica [12]) [%] | Post-emergence efficacy against KCHSC (KCHSC: Kochia scoparia [13]) [%] | Pre-emergence efficacy against AMARE [14] [%] | Pre-emergence efficacy against SETVI in % (SETVI: Setaria viridis [15]) [%] | Pre-emergence efficacy against ECHCG [16] [%] | Pre-emergence efficacy against ABUTH [17] [%] |
| --- | --- | --- | --- | --- | --- | --- | --- | --- | --- | --- | --- | --- | --- | --- | --- | --- | --- |
| [O-][S+](c1ccc(F)cc1)c1ccccc1Cc1ncc(Cl)cn1 (stereo not shown) [Example 1-142] | 80 | – | – | – | – | – | – | – | – | – | – | – | – | – | – | – | – |
| Fc1ccc(-c2ccccc2Cc2ncc(Cl)cc2F)cc1F [Example 1-127] | – | 90 | 100 | 90 | 100 | 90 | 100 | 90 | 90 | 100 | 90 | 100 | 100 | 100 | 100 | – | – |
| O=S(=O)(CCCC(F)(F)F)Oc1c(F)cccc1Cc1ncc(F)cn1 [Example 1-15] | 90 | – | – | – | – | – | – | – | – | – | – | – | – | – | – | – | – |
| O=S(=O)(CCC(F)(F)F)c1ccccc1Cc1ncc(F)cn1 [Example 1-150] | 80 | – | – | – | – | – | – | – | – | – | – | – | – | – | – | – | – |
| Fc1ccc(Oc2ccccc2Cc2ncccn2)cc1 [Example 1-98] | – | 100 | – | 90 | 90 | 90 | 100 | – | – | 90 | 90 | 100 | 90 | 100 | 90 | 90 | 100 |
| Fc1ccc(Oc2ccccc2Cc2ccc(Cl)cn2)cc1 [Example 1-74] | – | 100 | – | 100 | 90 | – | 90 | 90 | 90 | – | – | – | – | 100 | 100 | – | – |
| Fc1ccc(Cc2ccccc2Cc2ncc(F)cn2)cc1 [Example 1-95] | – | 90 | 100 | 90 | 100 | 100 | 100 | 90 | 90 | 100 | 100 | 90 | 100 | 100 | – | 90 | 100 |
| O=S(=O)(CCC(F)(F)F)Oc1c(Cl)cccc1Cc1ncc(Cl)cn1 [Example 1-20] | 90 | – | – | – | – | – | – | – | – | – | – | – | – | – | – | – | – |
| O=S(=O)(CCCC(F)(F)F)Oc1c(Cl)cccc1Cc1ncc(Cl)cn1 [Example 1-18] | 90 | – | – | – | – | – | – | – | – | – | – | – | – | – | – | – | – |
| Fc1ccc(Cc2ccccc2Oc2ncc(Cl)cc2F)nc1 [Example 1-103] | – | 90 | 100 | 90 | 100 | 100 | 100 | – | 90 | 100 | 90 | 100 | 90 | 100 | 100 | 90 | 100 |
